# What was measured:
# Type in all cases: cell-based
# [1] = test system: MCF-7 breast cancer cells; test: MTT assay, cell viability of breast cancer cell line (MCF-7); conditions: 1 μM, 72 hours
# Procedure: Specifically, MCF-7 breast cancer cells deposited under an accession number of KCTC13643BP on Sep. […] At this time, DMSO (dimethyl sulfoxide) was added to a control group in an amount to be 0.01% of the total medium, 1 μM paclitaxel was added to a positive control group, and then these control group and positive control group were cultured for 72 hours.
# When each of the culture times passed after drug treatment, the supernatant of each medium was removed, the MTT reagent was added to the fresh medium so as to be 0.5 mg/ml, the cells were cultured for 3 hours, then the supernatant was removed again, and then the medium was reconstituted with 100 μL of DMSO. Thereafter, the absorbance of cells was measured at 590 nm by using an ELISA instrument.
# [2] = test system: MCF-7 cell line; test: Change in metabolites in MCF-7 cell line after crizotinib treatment, UHPLC-MS; conditions: MCF-7, 1 μM, 12 hours, n=5
# Procedure: MCF-7 breast cancer cells were cultured in a 5% carbon dioxide cell incubator at a temperature of 37° C. using a DMEM medium containing 10% fetal bovine serum and 1% antibiotic. […] At this time, as a control group, DMSO was added to the cells in an amount to be 0.01% of the total medium, and the cells were cultured for 12 hours. Each cell was cultured in 5 cell dishes for each group so that the total number of experiments for each group was 5 (n=5).
# After the culture time of 12 hours had elapsed, the medium was removed, and the cells were washed two times with PBS. The cells were then acquired from the culture dish using a cell scraper, put in a tube, and stored at −80° C.
# (§1) Thereafter, a process in which the mixed solution was frozen using liquid nitrogen, dissolved in water at room temperature, and then sonicated for 30 seconds was repeated three times to destroy the cells. Thereafter, the resultant mixed solution was subjected to centrifugation at 14000 rpm for 10 minutes, and only the supernatant was separated from this. At this time, DNA quantitation was conducted in order to correct the cell volume of the intracellular fluid extract acquired according to the series of procedures. DNA quantitation was conducted by mixing the extract with water at a ratio of 1:3, putting 5 μL of the mixture in a cuvette, and measuring the quantity at 260 nm by using a spectrophotometer Nano-MD of SHINKO CO., LTD.
# (§2) Specifically, 10 μL of the acquired sample was injected into the ultra-high-performance liquid chromatography system-mass spectrometer, and the temperature of the injector was maintained at 4° C. […]
# (§3) Specifically, Excel raw data attained by conducting calibration and peak alignment using the compound discovery software of Thermo Fisher Scientific Inc. was extracted from the chromatogram. […] The extracted file was first divided by the internal standard substance and corrected using DNA quantitation of cells, and statistical processing was conducted using SIMCA software. […]
# [3] = test system: HCC-78 cells; test: WST-1 assay, cell growth inhibitory effect on lung carcinoma cell line (HCC-78); conditions: for inhibition of growth of HCC-78 cells (in words): 1 μM, 24, 48 and 72 hours, Student's t-test, p<0.05; for growth rate of HCC-78 cells (control group = 100%): 1 μM
# Procedure: Specifically, HCC-78 lung cancer cells deposited under an accession number of KCTC13642BP on Sep. […] At this time, DMSO (dimethyl sulfoxide) was added to a control group in an amount to be 0.01% of the total medium, 1 μM doxorubicin was added to a positive control group, and then these control group and positive control group were cultured for 24, 48, and 72 hours, respectively. In addition, the experiment was conducted using an A549 cell line instead of the HCC cell line as a negative control group. The A549 cell line is a kRAS mutant cell line and is also a cell line which is not involved in the overexpression of ALK and ROS-1.
# When each of the culture times passed after drug treatment, the WST-1 reagent was added to each medium in an amount to be 10% of the medium, the cells were cultured for 1 hour, and then the absorbance of cells was measured at 470 nm by using an ELISA instrument.
# [4] = test system: HCC-78 cell line; test: Change in metabolites in HCC-78 cell line after ALK/ROS-1 kinase inhibitor treatment, UHPLC-MS; conditions: HCC-78, 1 μM, 24 hours, n=5
# Procedure: HCC-78 lung cancer cells were cultured in a 5% carbon dioxide cell incubator at a temperature of 37° C. using a RPMI medium containing 10% fetal bovine serum and 1% antibiotic. […] At this time, as a control group, DMSO (dimethyl sulfoxide) was added to the cells in an amount to be 0.01% of the total medium, and the cells were cultured for 24 hours. Each cell was cultured in 5 cell dishes for each group so that the total number of experiments for each group was 5 (n=5).
# After the culture time of 24 hours had elapsed, the medium was removed, and the cells were washed two times with PBS (phosphate buffered saline). The cells were then acquired from the culture dish using a cell scraper, put in a tube, and stored at −80° C.
# as §1, §2, §3
structure (smiles),measurement,setting,value
CC(C)(C)c1nc(-c2cccc(NS(=O)(=O)c3c(F)cccc3F)c2F)c(-c2ccnc(N)n2)s1 [dabrafenib],inhibition of cell growth of MCF-7 cell line (in words),"[1]; Student's t-test, p value <0.05",5 kinds of kinase inhibitors except dabrafenib significantly inhibited
C[C@@H](Oc1cc(-c2cnn(C3CCNCC3)c2)cnc1N)c1c(Cl)ccc(F)c1Cl [crizotinib],AMP increase,[2],82.91%
same,adenosine decrease,[2],32.07%
same,cAMP decrease,[2],28.6%
same,inhibition of growth of HCC-78 cells (in words),[3],"significantly inhibited, particularly time dependently inhibited the growth of HCC-78 cells"
CC(=O)O[C@H]1C(=O)[C@@]2(C)[C@H]([C@H](OC(=O)c3ccccc3)[C@]3(O)C[C@H](OC(=O)[C@H](O)[C@@H](NC(=O)c4ccccc4)c4ccccc4)C(C)=C1C3(C)C)[C@]1(OC(C)=O)CO[C@@H]1C[C@@H]2O [paclitaxel],cell growth rate of MCF-7 as compared with control group,[1],46.86%
COc1cccc2c1C(=O)c1c(O)c3c(c(O)c1C2=O)C[C@@](O)(C(=O)CO)C[C@@H]3O[C@H]1C[C@H](N)[C@H](O)[C@H](C)O1 [doxorubicin],growth rate of HCC-78 cells (control group = 100%),[3]; 24 hours after treatment,57.65%
Cc1cc(Nc2ncc(Cl)c(Nc3ccccc3S(=O)(=O)C(C)C)n2)c(OC(C)C)cc1C1CCNCC1 [ceritinib],AMP increase as compared with control group,[4],188.21%
same,adenosine decrease as compared with control group,[4],95.31%
same,cAMP decrease as compared with control group,[4],66.78%
same,inhibition of growth of HCC-78 cells (in words),[3],"significantly inhibited, particularly time dependently inhibited the growth of HCC-78 cells"
same,growth rate of HCC-78 cells (control group = 100%),[3]; 24 hours after treatment,73.73%
same,growth rate of HCC-78 cells (control group = 100%),[3]; 48 hours after treatment,37.17%
same,growth rate of HCC-78 cells (control group = 100%),[3]; 72 hours after treatment,17.99%
